Experiment [1] concerns bio-artificial tissues including chicken embryo fibroblasts. Nature of the experiment: Tissue indentation device: stiffness and active cell force after CD (Example 16). It is filed as cell-based. On the procedure:
(§1) Bio-artificial tissues were generated by mixing cells and neutralized collagen, as described elsewhere (Wakatsuki et al., 2000, Biophys. J. 79:2353-2368). Briefly, cells were mixed with neutralized rat-tail collagen (Millipore Billerica, Mass.) and media containing 10% Fetal Bovine Serum (FBS). 200-250[…]1 of this solution is poured into wells as described below. The tissues are cultured in Dulbecco's modified Eagle's medium (DMEM) supplemented with 10% FBS and antibiotics (penicillin and streptomycin) in an incubator for two or three days. The bio-artificial tissue membrane was stretched using a mechanical testing device is (as detailed below). During the mechanical measurements, culture medium was switched to a HEPES-buffered DMEM, pH 7.4, and maintained at 37° C.
Cells used in this study included: (1) rat embryo fibroblasts (REF52 cell line) maintained in DMEM supplemented with 10% FBS split once a week (kind gift from Dr. Wysolmerski, Department of Neurobiology and Anatomy, West Virginia University School of Medicine), (2) chicken embryo fibroblasts (CEFs) isolated from 10 day old chicken embryos using a previously described protocol (Wakatsuki et al., 2000, Biophys. J. 79(5):2353-2368) maintained in DMEM supplemented with 3% FBS (passage 2 to 5), and (3) smooth muscle cells (SMC) isolated from adult rat aorta using a previously described protocol (Griendling et al., 1991, J. Biol. Chem. 266(23):15498-15504) cultured in DMEM supplemented with 10% FBS and 1% […] (passage 10-12).
A chamber to hold 8 bio-artificial tissues was machined from a polycarbonate bar (25×60×10 mm) using a tabletop CNC mill (Sherline Products Inc., Vista, Calif.). The 8 square wells of 8×8 mm contained 2 horizontal stainless-steel (medical grade) bars (1 mm diameter) which centers were located 2 mm above bottom and 2 mm beside each wall and were 4 mm apart (FIG. 29A). A microscope cover-slip (No. 1 thickness, Fisher brand) sealed the bottom of wells using silicon glue (Dow chemicals) to facilitate microscopic imaging of cells and bio-artificial tissues. A pre-polymerized solution of bio-artificial tissues was poured into the wells until the horizontal bars became immersed to half of its depth. During tissue culture, the solution gelled and entrapped cells that remodeled and compacted the gel (Tranquillo, 1999, Biochem. Soc. Symp. 65:27-42) by cell traction force. By the next day, the bio-artificial tissues detached from the bottom and side wall to form a membrane spanning between the two bars. The bio-artificial tissues stiffened to form a thin layer of tissue overlaying the bars and generated active tension within the bio-artificial tissues. The chambers were sterilized by UV before usage and kept in a 100 mm sterile Petri dish to avoid any contamination.
The mechanical testing device is depicted in FIG. 29A. A horizontal linear actuator (FIG. 29A-a, ER32-SRN300A, Parker, Wadsworth, Ohio) automatically places the center of each well at right angles below a force-probe (FIG. 29A-c). The bottom of L-shaped probe indents and bends the bio-artificial tissues at the middle (FIG. 29D). The other end of the probe is connected to an isometric force transducer (FIG. 29A-b, model 52-9545, Harvard Apparatus, South Natick, Mass.) and moved by a vertical linear actuator (FIG. 29A-a, ER32-SRN100A, Parker, Wadsworth, Ohio). During the tests, the temperature of bio-artificial tissues in the wells was maintained at 37° C. using a water jacketed warm plate (FIG. 29A-e) connected to a circulating water bath (HAAKE C10-P5, Thermo Fisher Scientific, Inc. Waltham, Mass.). The linear actuators were controlled simultaneously by a personal computer that also recorded the signal generated by the force transducer. The bio-artificial tissues can be quickly placed in a holder at its designated position for mechanical measurements. A time dependent function to lengthen and shorten bio-artificial tissues was predetermined using the computer software of the device. […]

The test system of experiment [2] is bio-artificial tissues (F-actin network). The experiment can be described thus: Tissue indentation device: force-time and longitudinal force-strain curves (Example 15). It is filed as cell-based. How it is done:
as §1
A chamber to hold 8 bio-artificial tissues was machined from a polycarbonate bar (25×60×10 mm) using a tabletop CNC mill (Sherline Products Inc., Vista, Calif.). The 8 square wells of 8×8 mm contained 2 horizontal stainless-steel (medical grade) bars (1 mm diameter) which centers were located 2 mm above bottom and 2 mm beside each wall and were 4 mm apart (FIG. 29A). A microscope cover-slip (No. 1 thickness, Fisher brand) sealed the bottom of wells using silicon glue (Dow chemicals) to facilitate microscopic imaging of cells and bio-artificial tissues. […]
The mechanical testing device is depicted in FIG. 29A. […] The linear actuators were controlled simultaneously by a personal computer that also recorded the signal generated by the force transducer. […]
While the force-probe indents the bio-artificial tissues vertically at a constant rate, ν (0.5 mm/sec), an isometric force transducer connected to the force probe recorded a resistance force, F(t). A time dependent change in bio-artificial tissues-membrane force in the longitudinal direction, T(t), was calculated from F(t) by a trigonometric relationship (FIG. 28). This rate of indentation was determined to achieve a minimum noise-level by the current device arrangement. […]

As for `C=C1[C@@H](C)[C@H]2[C@H](Cc3ccccc3)NC(=O)[C@]23[C@H](OC(C)=O)/C=C/[C@@](C)(O)C(=O)[C@@H](C)C/C=C/[C@H]3[C@@H]1O` [CD, cytochalasin D], in experiment [1] (200 pM to 2 μM CD, two hours post-treatment), the “pre-force (active cell force, CD treatment over control)” value was “concentration-dependent reduction”. In addition, the “EACD/EACT (ratio of post- over pre- CD treated stiffness)” value was determined as 0.932 ± 0.013 in experiment [1] ([CD] 0.2 nM); 0.938 ± 0.016 in experiment [1] ([CD] 0.9 nM); 0.986 ± 0.015 in experiment [1] ([CD] 4 nM); 0.979 ± 0.013 in experiment [1] ([CD] 20 nM); 0.970 ± 0.016 in experiment [1] ([CD] 90 nM); 0.964 ± 0.021 in experiment [1] ([CD] 400 nM). For the same compound, in experiment [1] ([CD] 2000 nM), the “EACD/EACT (ratio of post- over pre- CD treated stiffness)” value was determined as 1.077 ± 0.050. Moreover, the “zCD-zCT (difference in sample surface height between post- and pre- CD treated samples)” value is −8.925 ± 9.257 μm in experiment [1] ([CD] 0.2 nM); −21.761 ± 8.982 μm in experiment [1] ([CD] 0.9 nM); −23.707 ± 13.222 μm in experiment [1] ([CD] 4 nM); 4.550 ± 7.653 μm in experiment [1] ([CD] 20 nM); −22.054 ± 12.989 μm in experiment [1] ([CD] 90 nM); −17.607 ± 6.533 μm in experiment [1] ([CD] 400 nM). For the same compound, the “zCD-zCT (difference in sample surface height between post- and pre- CD treated samples)” value in experiment [1] ([CD] 2000 nM) is −35.318 ± 15.189 μm. In addition, the “EA (mechanical properties of extracellular matrix)” value in experiment [1] (after the CD treatment) is on record as “did not change at all”. In addition, the “pre-force σ0A (minimum force) compared to untreated control” value in experiment [2] (90 nM CD) and in experiment [2] (2 μM CD) was “reduced levels” in each case. Further, in experiment [2] (90 nM and 2 μM CD), the “resistance force F(t) while stretching the membrane” value was “less resistance force”.

(Values after US8227240B2, “Systems for screening pharmaceutical chemicals” (The Washington University, priority 2001, dated 2012).)
